Legend:
[1] = Half life in cynomolgus monkey at 1 mg/kg, iv measured upto 24 hrs by LC/MS-MS analysis; format: ADME, organism-based, Macaca fascicularis; settings: in vivo
[2] = Volume of distribution at steady state in Sprague-Dawley rat at 10 mg/kg, po administered as solution measured upto 24 hrs by LC-MS/MS analysis; format: ADME, organism-based; settings: in vivo
[3] = Tmax in Sprague-Dawley rat at 10 mg/kg; format: ADME, organism-based; settings: in vivo
[4] = Chemical stability of the compound at pH 2 measured after 0.5 to 4 hrs; format: physicochemical; settings: buffer, time 0.5-4 hrs
[5] = Drug excretion in rat assessed as drug recovery in urine at 1 mg/kg, iv; format: ADME, organism-based; settings: read-out: Drug recovery
[6] = Drug excretion in BALB/c mouse assessed as drug recovery in urine at 1 mg/kg, iv; format: ADME, organism-based; settings: read-out: Drug recovery
[7] = Clearance in Sprague-Dawley rat at 1 mg/kg, iv measured upto 24 hrs by LC-MS/MS analysis; format: ADME, organism-based; settings: in vivo
[8] = molecular target: Mu-type opioid receptor (Homo sapiens) (UniProt P35372); test: Inhibition of human recombinant MOP receptor at 10 uM relative to control
Sequence of Mu-type opioid receptor (Homo sapiens) (P35372 whole entry): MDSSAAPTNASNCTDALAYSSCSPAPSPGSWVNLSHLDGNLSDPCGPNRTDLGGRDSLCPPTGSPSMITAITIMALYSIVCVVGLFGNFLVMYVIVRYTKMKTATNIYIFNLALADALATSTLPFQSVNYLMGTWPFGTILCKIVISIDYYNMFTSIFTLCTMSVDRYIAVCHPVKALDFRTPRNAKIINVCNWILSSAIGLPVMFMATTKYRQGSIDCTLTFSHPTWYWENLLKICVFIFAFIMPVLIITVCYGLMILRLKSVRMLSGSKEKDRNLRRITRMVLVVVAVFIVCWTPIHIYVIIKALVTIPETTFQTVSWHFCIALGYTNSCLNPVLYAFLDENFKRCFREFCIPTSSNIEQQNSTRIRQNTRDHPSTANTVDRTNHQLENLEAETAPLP

[9] = Metabolic stability in rat liver S9 fraction measured upto 60 mins by LC-MS/MS method; format: ADME, subcellular; settings: read-out: Stability
[10] = Kinetic solubility of compound upto 500 uM at pH 2 measured after 16 hrs under shaking condition by UV-visible method; format: physicochemical; settings: buffer, read-out: Kinetic_solubility
[11] = Chemical stability of the compound at pH 4 measured after 0.5 to 4 hrs; format: physicochemical; settings: buffer, time 0.5-4 hrs
[12] = AUC(0 to 24 hrs) in Sprague-Dawley rat at 10 mg/kg; format: ADME, organism-based; parameters: dose 10 mg/kg; settings: in vivo
[13] = AUC(0 to t) in rat at 25 mg/kg per day, po via gavage administered for 13 weeks; format: ADME, organism-based; parameters: dose 25 mg/kg, time 13 weeks, route po; settings: in vivo
[14] = Kinetic solubility of compound in 20% HP-beta-CD upto 500 uM measured after 16 hrs under shaking condition by UV-visible method; format: physicochemical; settings: read-out: Kinetic_solubility
[15] = Tmax in Sprague-Dawley rat at 10 mg/kg, po administered as solution measured upto 24 hrs by LC-MS/MS analysis; format: ADME, organism-based; settings: in vivo
[16] = Drug excretion in rat assessed as drug recovery in urine at 10 mg/kg, po; format: ADME, organism-based; settings: read-out: Drug recovery
[17] = Tmax in Beagle dog at 5 mg/kg, po measured upto 24 hrs by LC/MS-MS analysis; format: ADME, organism-based, Canis lupus familiaris; settings: in vivo
Rattus norvegicus [18] = test: Acute effect on parathyroid hormone in overnight fasted adenine diet-induced chronic kidney disease Wistar rat model assessed as reduction in plasma PTH level at 10 mg/kg, po measured after 1 hrs of post treatment by sandwich ELISA analysis; format: functional; parameters: scale not given: the % may be the effect or the level left
[19] = Microsomal stability in human liver microsomes assessed as parent compound remaining at 1 uM measured upto 30 mins in presence of NADPH by LC-MS/MS analysis; format: ADME, Microsome; settings: liver microsomes, read-out: Stability
[20] = Stability in dog plasma measured up to 4 hrs by LC-MS/MS method; format: ADME, cell-free, Canis lupus familiaris; settings: read-out: Stability
[21] = Oral bioavailability in Sprague-Dawley rat at 10 mg/kg administered as suspension measured upto 24 hrs by LC-MS/MS analysis; format: ADME, organism-based; settings: in vivo
CYP2C9 = CYP2C9 (Homo sapiens, UniProt P11712); test: Inhibition of CYP2C9 in human liver microsomes at 10 uM preincubated for 5 mins followed by NADPH addition by LC-MS/MS analysis relative to control; format: ADME, Microsome
Sequence of CYP2C9 (P11712 whole entry): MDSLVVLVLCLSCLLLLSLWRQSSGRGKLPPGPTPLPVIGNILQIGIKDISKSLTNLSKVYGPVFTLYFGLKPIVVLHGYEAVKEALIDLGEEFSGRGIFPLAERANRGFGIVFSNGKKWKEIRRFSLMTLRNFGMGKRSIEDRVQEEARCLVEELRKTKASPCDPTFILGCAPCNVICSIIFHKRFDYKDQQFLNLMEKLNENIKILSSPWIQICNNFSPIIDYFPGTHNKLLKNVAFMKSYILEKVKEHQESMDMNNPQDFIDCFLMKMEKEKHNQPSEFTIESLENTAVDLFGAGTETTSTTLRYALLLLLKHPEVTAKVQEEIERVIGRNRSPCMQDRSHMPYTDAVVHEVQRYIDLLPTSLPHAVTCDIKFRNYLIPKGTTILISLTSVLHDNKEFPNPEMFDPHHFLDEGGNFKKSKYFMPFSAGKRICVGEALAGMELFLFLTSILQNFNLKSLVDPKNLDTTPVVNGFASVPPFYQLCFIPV

Rattus norvegicus [22] = test: Acute effect on parathyroid hormone in overnight fasted adenine diet-induced chronic kidney disease Wistar rat model assessed as reduction in plasma PTH level at 3 mg/kg, po measured after 1 hrs of post treatment by sandwich ELISA analysis; format: functional; parameters: scale not given: the % may be the effect or the level left
Rattus norvegicus [23] = test: Chronic effect on parathyroid hormone in overnight fasted adenine diet-induced chronic kidney disease Wistar rat model plasma assessed as reduction in plasma PTH level at 3 mg/kg, po qd measured after 27 days of post treatment by sandwich ELISA analysis; format: functional; parameters: scale not given: the % may be the effect or the level left; settings: time 27 day
[24] = Kinetic solubility of compound in water upto 500 uM measured after 16 hrs under shaking condition by UV-visible method; format: physicochemical; settings: read-out: Kinetic_solubility
hERG = hERG (Homo sapiens, UniProt Q12809); test: Inhibition of hERG at 1 uM relative to control; format: toxicity
Sequence of hERG (Q12809 whole entry): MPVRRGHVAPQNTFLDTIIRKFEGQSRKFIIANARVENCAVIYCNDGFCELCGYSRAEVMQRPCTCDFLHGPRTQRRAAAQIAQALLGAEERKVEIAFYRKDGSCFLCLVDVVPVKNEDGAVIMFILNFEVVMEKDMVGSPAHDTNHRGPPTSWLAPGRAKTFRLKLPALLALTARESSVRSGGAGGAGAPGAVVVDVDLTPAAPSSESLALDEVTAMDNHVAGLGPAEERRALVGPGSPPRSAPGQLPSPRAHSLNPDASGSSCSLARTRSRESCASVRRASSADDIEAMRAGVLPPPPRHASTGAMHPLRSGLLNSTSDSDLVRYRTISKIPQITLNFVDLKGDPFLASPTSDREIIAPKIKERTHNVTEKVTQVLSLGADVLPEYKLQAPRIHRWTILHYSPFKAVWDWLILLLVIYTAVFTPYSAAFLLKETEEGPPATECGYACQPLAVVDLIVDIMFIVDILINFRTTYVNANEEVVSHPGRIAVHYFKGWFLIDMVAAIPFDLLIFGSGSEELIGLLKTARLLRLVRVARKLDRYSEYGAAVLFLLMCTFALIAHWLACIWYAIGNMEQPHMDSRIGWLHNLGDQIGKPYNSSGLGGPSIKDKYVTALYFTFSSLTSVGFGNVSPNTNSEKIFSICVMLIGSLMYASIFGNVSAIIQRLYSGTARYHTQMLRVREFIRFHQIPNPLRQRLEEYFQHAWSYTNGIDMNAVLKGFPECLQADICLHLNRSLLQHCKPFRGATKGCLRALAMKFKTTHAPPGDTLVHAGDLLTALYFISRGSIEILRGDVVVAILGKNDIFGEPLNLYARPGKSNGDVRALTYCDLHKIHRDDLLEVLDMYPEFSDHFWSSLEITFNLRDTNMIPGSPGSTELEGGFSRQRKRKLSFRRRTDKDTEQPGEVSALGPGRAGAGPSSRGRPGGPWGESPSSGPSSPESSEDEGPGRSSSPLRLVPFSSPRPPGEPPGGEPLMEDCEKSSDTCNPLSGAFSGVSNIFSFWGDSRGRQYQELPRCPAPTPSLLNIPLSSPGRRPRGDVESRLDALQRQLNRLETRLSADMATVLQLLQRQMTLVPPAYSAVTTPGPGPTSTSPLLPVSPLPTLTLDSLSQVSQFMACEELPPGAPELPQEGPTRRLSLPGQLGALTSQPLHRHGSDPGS

[25] = Effect on parathyroid hormone in overnight fasted Sprague-Dawley rat assessed as reduction in plasma PTH level at 3 mg/kg, po measured after 0.5 hrs of post treatment by sandwich ELISA analysis; format: functional; parameters: scale not given: the % may be the effect or the level left
[26] = Chemical stability of the compound in 0.1N NaOH measured after 0.5 to 4 hrs; format: physicochemical; settings: time 0.5-4 hrs
[27] = Plasma clearance in Beagle dog at 1 mg/kg, iv measured upto 24 hrs by LC/MS-MS analysis; format: ADME, organism-based, Canis lupus familiaris
[28] = AUC(0 to t) in human at 10 mg/kg, po administered as single dose; format: ADME, organism-based; parameters: dose 10 mg/kg, route po; settings: in vivo
[29] = Half life in Sprague-Dawley rat at 1 mg/kg, iv measured upto 24 hrs by LC/MS-MS analysis; format: ADME, organism-based; settings: in vivo
[30] = Cmax in Sprague-Dawley rat at 100 mg/kg; format: ADME, organism-based; parameters: dose 100 mg/kg; settings: in vivo
[31] = Kinetic solubility of compound in FaSSIF upto 500 uM measured after 16 hrs under shaking condition by UV-visible method; format: physicochemical; settings: read-out: Kinetic_solubility
[32] = Protein binding in mouse plasma incubated for 16 hrs under shaking condition by rapid equilibrium dialysis based LC-MS/MS method; format: ADME, cell-free; settings: read-out: PPB
[33] = Protein binding in human plasma incubated for 16 hrs under shaking condition by rapid equilibrium dialysis based LC-MS/MS method; format: ADME, cell-free; settings: read-out: PPB
[34] = Cmax in rat at 25 mg/kg per day, po via gavage administered for 13 weeks; format: ADME, organism-based; parameters: time 13 weeks, dose 25 mg/kg, route po; settings: in vivo
[35] = Toxicity in mouse assessed as NOAEL; settings: in vivo
[36] = Stability in mouse plasma measured up to 4 hrs by LC-MS/MS method; format: ADME, cell-free; settings: read-out: Stability
[37] = Effect on parathyroid hormone in overnight fasted Sprague-Dawley rat assessed as reduction in plasma PTH level at 3 mg/kg, po measured after 6 hrs of post treatment by sandwich ELISA analysis; format: functional; parameters: scale not given: the % may be the effect or the level left
[38] = Drug excretion in rat assessed as drug recovery in feces at 1 mg/kg, iv; format: ADME, organism-based; settings: faeces, read-out: Drug recovery
[39] = Metabolic stability in human liver S9 fraction measured upto 60 mins by LC-MS/MS method; format: ADME, subcellular; settings: read-out: Stability
[40] = Tmax in Sprague-Dawley rat at 100 mg/kg; format: ADME, organism-based; settings: in vivo
[41] = Drug excretion in rat assessed as drug recovery in feces at 10 mg/kg, po; format: ADME, organism-based; settings: faeces, read-out: Drug recovery
Rattus norvegicus [42] = test: Subchronic effect on parathyroid hormone in overnight fasted adenine diet-induced chronic kidney disease Wistar rat model plasma assessed as reduction in plasma PTH level at 1 mg/kg, po qd measured after 27 days of post treatment by sandwich ELISA analysis; format: functional; parameters: scale not given: the % may be the effect or the level left; settings: time 27 day
[43] = Cmax in Sprague-Dawley rat at 1 mg/kg, iv measured upto 24 hrs by LC-MS/MS analysis; format: ADME, organism-based; parameters: dose 1 mg/kg, time < 24 hrs, route iv; settings: in vivo
[44] = Kinetic solubility of compound in FeSSIF upto 500 uM measured after 16 hrs under shaking condition by UV-visible method; format: physicochemical; settings: read-out: Kinetic_solubility
[45] = Kinetic solubility of compound upto 500 uM at pH 9 measured after 16 hrs under shaking condition by UV-visible method; format: physicochemical; settings: buffer, read-out: Kinetic_solubility
[46] = AUC(0 to t) in rat at 50 mg/kg per day, po via gavage administered for 2 weeks; format: ADME, organism-based; parameters: dose 50 mg/kg, time 2 weeks, route po; settings: in vivo

SMILES: Cc1ccc([C@@H]2C[C@H](CN[C@H](C)c3cccc4ccccc34)Oc3ccccc32)cc1C(=O)O.Cl
- half-life [1]: 5 h
- Vdss [2]: 0.6 L/kg
- Tmax [3]: 1 h
- Stability [4]: Stable
- dose excreted [5]: < 1%
- dose excreted [6]: < 1%
- clearance [7]: 4 mL/min/kg
- inhibition [8]: > 50%
- remaining at 1 h [9]: > 80%
- solubility kinetic at 16 h, 500 µM [10]: > 300 µM
- Stability [11]: Stable
- AUC(0-t) [12]: 23 µM·h
- AUC(0-t) at 2184 h [13]: 98900 ng·h/mL
- solubility kinetic at 16 h, 500 µM [14]: > 200 µM
- Tmax [15]: 0.6 h
- dose excreted [16]: < 1%
- Tmax [17]: 0.7 h
- Activity (Rattus norvegicus [18]): 96%
- remaining at 0.5 h, 1 µM [19]: 73%
- remaining at 4 h [20]: > 80%
- bioavailability [21]: 33%
- inhibition at 10 µM (CYP2C9): 0%
- Activity (Rattus norvegicus [22]): 96%
- Activity (Rattus norvegicus [23]): 83%
- solubility kinetic at 16 h, 500 µM [24]: > 300 µM
- inhibition at 1 µM (hERG): 1%
- Activity [25]: 100%
- Stability [26]: Stable
- clearance [27]: 2 mL/min/kg
- AUC(0-t) [28]: 1840 ng·h/mL
- half-life [29]: 4 h
- Cmax [30]: 53 µM
- solubility kinetic at 16 h, 500 µM [31]: > 300 µM
- fraction unbound at 16 h [32]: < 0.01
- fraction unbound at 16 h [33]: < 0.01
- Cmax [34]: 9660 ng/mL
- NOAEL [35]: 50 mg/kg/day
- remaining at 4 h [36]: > 80%
- Activity [37]: 18%
- dose excreted [38]: 10%
- remaining at 1 h [39]: > 80%
- Tmax [40]: 1 h
- dose excreted [41]: 3%
- Activity (Rattus norvegicus [42]): 83%
- Cmax [43]: 2 µM
- solubility kinetic at 16 h, 500 µM [44]: > 300 µM
- solubility kinetic at 16 h, 500 µM [45]: > 200 µM
- AUC(0-t) at 336 h [46]: 108000 ng·h/mL
